Data set [1] is described as follows: 1O2 quantum yield measurement with ABDA, Rose Bengal standard. Format: physicochemical. The settings on record: for 1O2 quantum yield: in water, white light, relative to Rose Bengal; for degradation rate of ABDA: white light irradiation, ABDA absorbance at 378 nm. Here is the method:
The ^1O2-sensitive indicator, 9,10-anthracenediyl-bis(methylene) dimalonic acid (ABDA), was used as the ^1O2-trapping agent, and Rose Bengal (RB) was used as the standard photosensitizer. In these experiments, 10 μL of ABDA solution ([…]) was added to 1 mL of sample solution, and white light (400-800 nm) with a power density of 0.25 W cm^−2 was employed as the irradiation source. The absorbance of ABDA at 378 nm was recorded at different irradiation time to obtain the decay rate of the photosensitizing process. The ^1O2 quantum yield of the PS in water (ΦPS) was calculated using the following formula: […]
Where KPS and KRB are the decomposition rate constants of ABDA by the PSs and RB, respectively. APS and ARB represent the light absorbed by the PSs and RB, respectively, which are determined by integration of the optical absorption bands in the wavelength range 400-800 nm. ΦRB is the ^1O2 quantum yield of RB, and ΦRB=0.75 in water.
To assess capabilities of PPDC, TPPDC, and TPDC in ^1O2 generation, a commercial ^1O2 probe ABDA was used as an indicator and Rose Bengal (RB) was used as the standard photosensitizer (^1O2 quantum yield ORB=0.75 in water). In the presence of PSs or RB under irradiation with white light, the absorbance of the ABDA solution at 378 nm, decreases with prolonged irradiation time, indicating the degradation of ABDA by ^1O2 generated by PSs. […] Thus, the ^1O2 quantum yield of PPDC, TPPDC and TPDC was calculated to be 0.89, 0.32 and 0.28, respectively. These findings agree well with the prediction based on eq. (1).

The conditions of data set [2]: in water; cited from earlier work.
Data set [3] in a line: ROS generation of AIE residue of prodrug, ABDA absorbance. Format: physicochemical. The settings on record: 12 min light irradiation, 0.25 W cm-2. From the text:
The ROS generation of the AIE residue was studied by measuring the absorption spectra of the mixture of TPECB-Pt-D5-cRGD and 9,10-anthracenediyl-bis(methylene)dimalonic acid (ABDA) in DMSO/PBS (v/v=1/199) upon light irradiation. It should be noted that the absorbance of TPECB-Pt-D5-cRGD is low and will not disturb the absorbance change of ABDA. As depicted in FIG. 23D, the absorption peaks at 358 nm, 378 nm and 400 nm attributed to the anthracene moiety in ABDA decreased gradually upon light irradiation. This is due to the fact that ABDA can efficiently trap ROS by fast reaction with the anthracene moiety.

In another data set the test system is 293T cells. Kind of data set: MTT anti-proliferative assay. As to conditions: in dark or with light irradiation. Type of data set: cell-based. On the procedure:
(§1) Subsequently, the anti-proliferative properties of TPECB-Pt-D5-cRGD towards MDA-MB-231 cells, U87-MG cells, MCF-7 cells and 293T cells were evaluated by MTT assays. The MDA-MB-231 cells are cisplatin resistant while U87-MG cells are cisplatin-sensitive. […] It should be noted that the cytotoxicity of cisplatin to both cells was not affected by the light irradiation.
Background: Tetrazolium dyes change colour on reduction, which living cells bring about.

The next data set deals with MCF-7 cells. Kind of data set: MTT anti-proliferative assay. Type of data set: cell-based. The settings on record: in dark or with light irradiation. On the procedure: as §1
The test system of another data set is MDA-MB-231 cells. Kind of data set: Combination index (C.I.) analysis from dose-effect profiles. Format: cell-based. As to conditions: drug effect levels from 75% to 25%. On the procedure: To confirm the drug synergy in cRGD-TPE-Pt-DOX, the combination index (C.I.) was calculated. The C.I. derived from the dose-effect profiles was plotted against drug effect level, which provided quantitative information of the combination drug effect, where C.I. values lower than, equal to, or higher than 1 denote synergism, additivity, or antagonism, respectively.
The combination therapy of cisplatin and DOX towards MDA-MB-231 cells was evaluated by the combination index (C.I.) analysis. The C.I. was calculated as follows: C.I.=D1/Df1+D2/Df2+D1D2/Df1Df2. Where. Df1 is the dose of Drug-1 required to produce x percent effect alone and D1 is the dose of Drug-1 required to produce the same x percent effect in combination with Drug-2; similarly, Df2 is the dose of Drug-2 required to produce x percent effect alone and D2 is the dose of Drug-2 required to produce the same x percent effect in combination with Drug-1. Theoretically, C.I. is the ratio of the combination dose to the sum of the single-drug doses at an isoeffective level. Consequently, C.I. values <1 indicate synergism, values >1 show antagonism, and values=1 indicate additive effects.

Data set [4] deals with MDA-MB-231, MCF-7 and 293T cells. Description: Annexin V-FITC/PI apoptosis staining. Format: cell-based. As to conditions: 6 h incubation; only MDA-MB-231 strong apoptotic fluorescence, MCF-7 and 293T negligible. Here is the method:
The toxicity of cRGD-TPE-Pt-DOX to different cells was also studied using MDA-MB-231, MCF-7 and 293T cells as examples. After incubation with cRGD-TPE-Pt-DOX for 6 h, the cells were stained with Annexin V-FITC/Propidium Iodide (PI), which are commonly used fluorescent probes to distinguish viable cells from apoptosis ones. […] This should be due to the integrin mediated endocytosis, which leads to selective cellular uptake of the prodrug cRGD-TPE-Pt-DOX.

Another data set concerns U87-MG cells. Kind of data set: MTT anti-proliferative assay. The settings on record: not affected by light irradiation. Type of data set: cell-based. Here is the method:
as §1

Here are results for seven compounds from patent US20170168041A1, “Polymers And Oligomers With Aggregation-Induced Emission Characteristics For Imaging And Image-Guided Therapy” (National University of Singapore, priority 2014, published 2017).

Molecules are shown by their SMILES.

With `COc1ccc(C(=C(c2ccccc2)c2ccc(-c3ccc(C(C)=C(C#N)C#N)cc3)cc2)c2ccc(OC)cc2)cc1` [PPDC], in data set [1], the 1O2 quantum yield was determined as 0.89 and the “degradation rate of ABDA” value was 0.0032.

On to `O=C([O-])c1c(Cl)c(Cl)c(Cl)c(Cl)c1-c1c2cc(I)c(=O)c(I)c-2oc2c(I)c([O-])c(I)cc12.[Na+].[Na+]` [Rose Bengal], for which, in data set [2], the “1O2 quantum yield of standard” value is reported as 0.75.

Consider `COc1ccc(C(=C(c2ccccc2)c2ccc(C(C)=C(C#N)C#N)cc2)c2ccc(OC)cc2)cc1` [TPDC], for which, in data set [1], the 1O2 quantum yield came to 0.28 and the “degradation rate of ABDA” value was found to be 0.0013.

Regarding `COc1ccc(C(=C(c2ccccc2)c2ccc(C(/C=C/c3ccc(OCCCNC(=O)CCC(=O)[O][Pt-2]([NH3+])([NH3+])([Cl])([Cl])[O]C(=O)CCC(=O)N[C@@H](CC(=O)O)C(=O)N[C@@H](CC(=O)O)C(=O)N[C@@H](CC(=O)O)C(=O)N[C@@H](CC(=O)O)C(=O)N[C@@H](CC(=O)O)C(=O)NCCCC[C@@H]4NC(=O)[C@@H](Cc5ccccc5)NC(=O)[C@H](CC(=O)O)NC(=O)CNC(=O)[C@H](CCCNC(=N)N)NC4=O)cc3)=C(C#N)C#N)cc2)c2ccc(OC)cc2)cc1` [TPECB-Pt-D5-cRGD], in data set [3], the “ABDA absorption at 400 nm, % of original value” worked out at 24.1%. Moreover, the cytotoxicity entry with 293T cells and in the data set on MCF-7 cells was “minimum cytotoxicity” throughout.

`COc1ccc(C(=C(c2ccccc2)c2ccc(C(=C(C#N)C#N)c3ccccc3)cc2)c2ccc(OC)cc2)cc1` [TPPDC]: in data set [1], the 1O2 quantum yield came out at 0.32 and the “degradation rate of ABDA” value stood at 0.0018.

Turning to `COc1cccc2c1C(=O)c1c(O)c3c(c(O)c1C2=O)C(OC1CC(NC(=O)CCC(=O)[O][Pt]([NH2])([NH2])([Cl])([Cl])[O]C(=O)CCC(=O)NCc2cn(Cc4ccc(/C(=C(\c5ccccc5)c5ccc(Cn6cc(C[C@@H]7NC(=O)[C@@H](Cc8ccccc8)NC(=O)[C@H](CC(=O)O)NC(=O)CNC(=O)[C@H](CCCNC(=N)N)NC7=O)nn6)cc5)c5ccccc5)cc4)nn2)C(O)C(C)O1)CC(O)(C(=O)CO)C3` (stereo partly shown) [cRGD-TPE-Pt-DOX], the “combination index (C.I.) result” value with MDA-MB-231 cells is on record as “synergistic effect”. Moreover, the selective apoptosis result in data set [4] is “selectively kill integrin overexpressed cancer cells”.

The IC50 is the point on the concentration scale where inhibition reaches its midpoint. On to `N.N.[Cl][Pt][Cl]` [cisplatin], for which half-maximal inhibition in the data set on U87-MG cells (IC50) required 5.4 µM.
